Measured values published in paper PMC12320299 (Chemical Science, 2025).

Columns and labels:
SW480 = test system: SW480; parameters: method as in earlier work; details: 96 h incubation; ref 48 (ESI Ref. 1); cited from earlier work
CH1/PA-1 = test system: CH1/PA-1; parameters: method as in Ref. 1 (ESI); details: 96 h incubation; ref Ref. 1 (ESI); cited from earlier work
TP53 = test: Immunofluorescence staining of TP53; format: cell-based, human; details: SW480, 24 h; 1a 1 μM; etoposide 100 nM
Experimental: Cell Signaling Technology (Danvers, MA, USA), respectively. Horseradish-peroxidase-linked secondary antibodies, anti-mouse IgG (Fc specific) antibody (#7076S) and anti-rabbit IgG antibody (#7074S) were purchased from Cell Signaling Technology (Danvers, MA, USA). Anti-ß-actin (AC-15) (A5441, 1:2000) was obtained from Sigma-Aldrich (St. Louis, MO, USA).
SW480 and CT26 cells were grown at a density of 6.7x10^4 cells/mL on 8-well glass coverslips (80841, ibidi GmbH, Gräfelfing, Germany) in 300 µL complete media. The next day, cells were treated with respective compounds for 24 h. Cells were fixed with 4%(v/v) paraformaldehyde for 15 min at RT, followed by washing, blocking and permeabilization with 5%(w/v) BSA and […]
(1 : 500) were diluted in 1% BSA-0.3% Triton-X-100 in PBS and incubated overnight at 4 °C.
One well was incubated without primary antibody as background control. Cells were washed and stained with secondary goat anti-mouse AlexaFlour-488 (1 : 500 dilution, A-11029, Thermo Fisher Scientific) or goat anti-rabbit AlexaFlour-488 (1 : 500 dilution, A-11034, Thermo Fisher Scientific) antibodies for 1 h at RT. Following, cells were stained with 0.2% Wheat Germ Agglutinin (WGA)-Rhodamine (RL-1022, Vector Laboratories, Inc.) and 0.1% DAPI (62248, Thermo Fisher Scientific) for staining of plasma membrane and nuclei, respectively, according to manufacturer’s recommendations. […]

SW480 cancer cells = test: Cell cycle analysis by flow cytometry (propidium iodide); format: cell-based, human; details: 24 h; 1a 12.5 to 50 nM; gemcitabine 10 nM

Structure (SMILES) | IC50 (SW480) | IC50 (CH1/PA-1) | TP53 immunofluorescence signal (TP53) | cell cycle distribution (SW480 cancer cells)
CCC1=C(O)C(=O)c2ccccc2C1=O [a] | 100 ± 10 µM | 173 ± 10 µM | – | –
O=C1C(O)=C(CN2CCOCC2)C(=O)c2ccccc21 [b, 3-morpholine naphthoquinone] | 160 ± 30 µM | > 200 µM | – | –
N.N.[Cl][Pt][Cl] [cisplatin, reference compound] | 2.3 ± 0.2 µM | 0.073 ± 0.001 µM | – | –
COc1cc([C@@H]2c3cc4c(cc3[C@@H](O[C@@H]3O[C@@H]5CO[C@@H](C)O[C@H]5[C@H](O)[C@H]3O)[C@H]3COC(=O)[C@H]23)OCO4)cc(OC)c1O [etoposide, reference compound] | – | – | enhanced nuclear accumulation of TP53 | –
Nc1ccn([C@@H]2O[C@H](CO)[C@@H](O)C2(F)F)c(=O)n1 [gemcitabine, reference compound] | – | – | – | G0/G1 arrest
